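Exposure lasted 48 hours, with cells grown in 96-well plates and compounds tested at five concentrations. Abbreviation: GI50, concentration required for 50% inhibition of growth. TGI marks complete inhibition of growth.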
What was measured:
Assay in all cases: DTP human tumour cell line panel, 48 h
A549 NSCLC = test system: A549 NSCLC
CAKI-1 renal = test system: CAKI-1 renal
EKVX NSCLC = test system: EKVX NSCLC
HL-60(TB) leukemia = test system: HL-60(TB) leukemia
HOP-92 NSCLC = test system: HOP-92 NSCLC
SK-MEL-28 melanoma = test system: SK-MEL-28 melanoma
SK-MEL-5 melanoma = test system: SK-MEL-5 melanoma
SNB-75 CNS = test system: SNB-75 CNS
LOX IMVI melanoma = test system: LOX IMVI melanoma
RXF 393 renal = test system: RXF 393 renal

Row | SMILES | TGI (A549 NSCLC) [µM] | TGI (CAKI-1 renal) [µM] | TGI (EKVX NSCLC) [µM] | TGI (HL-60(TB) leukemia) [µM] | TGI (HOP-92 NSCLC) [µM] | TGI (SK-MEL-28 melanoma) [µM] | TGI (SK-MEL-5 melanoma) [µM] | TGI (SNB-75 CNS) [µM] | TGI (LOX IMVI melanoma) [µM] | TGI (RXF 393 renal) [µM] | GI50 (HL-60(TB) leukemia) [µM] | GI50 (HOP-92 NSCLC) [µM] | GI50 (LOX IMVI melanoma) [µM] | GI50 (RXF 393 renal) [µM] | GI50 (SNB-75 CNS) [µM] | GI50 (A549 NSCLC) [µM] | GI50 (CAKI-1 renal) [µM] | GI50 (EKVX NSCLC) [µM] | GI50 (SK-MEL-28 melanoma) [µM] | GI50 (SK-MEL-5 melanoma) [µM]
1 | C=CCc1cc(OC)c2c(c1)C(O)CC(c1ccc(OC)c(OC)c1)O2 (centres undefined) | > 100 | > 100 | > 100 | > 100 | > 100 | > 100 | > 100 | > 100 | – | – | – | – | – | – | – | – | – | – | – | –
2 | Cc1cc(=O)[nH]c(NNC(C#N)c2cccc(O)c2)n1 (centres undefined) | > 100 | > 100 | – | > 100 | > 100 | > 100 | > 100 | > 100 | > 100 | > 100 | – | – | – | – | – | – | – | – | – | –
3 | O=C1NC2(CCCCC2)C2CCCCC(O)C12 (centres undefined) | > 100 | > 100 | > 100 | > 100 | – | > 100 | – | > 100 | – | > 100 | – | – | – | – | – | – | – | – | – | –
4 | CC(=O)NC1=C(NCC(C)(C)C)C(=O)c2ccccc2C1=O | > 100 | – | > 100 | > 100 | – | > 100 | > 100 | > 100 | > 100 | > 100 | – | – | – | – | – | – | – | – | – | –
5 | COc1ccc2nc3cc(Cl)ccc3c(Sc3ccccc3[N+](=O)[O-])c2c1 | > 100 | > 100 | > 100 | – | > 100 | > 100 | > 100 | 37.3 | > 100 | 93.2 | – | – | – | – | – | – | – | – | – | –
6 | COc1cccc(NC(=O)CC(=O)n2nc(C)c(N=Nc3ccccc3)c2C)c1 | > 100 | > 100 | > 100 | – | > 100 | > 100 | > 100 | > 100 | > 100 | – | – | – | – | – | – | – | – | – | – | –
7 | CC1CN1P1(N2CC2C)=NP(N2CC2C)(N2CC2C)=NP(N2CC2C)(N2CC2C)=N1 (centres undefined) | > 50 | > 50 | > 50 | > 50 | > 50 | > 50 | > 50 | > 50 | – | > 50 | – | – | – | – | – | – | – | – | – | –
8 | O=C(CSC(=S)N1CCCCC1)Nc1nc2c(s1)CCCC2 | > 100 | – | – | 33.8 | 94.3 | > 100 | 32.9 | > 100 | 40.6 | – | – | – | – | – | – | – | – | – | – | –
9 | CC[C@@]12CCCN3CC[C@]4(c5cccc(OC)c5N(C(C)=O)[C@@H]4CC1)[C@H]32 | > 100 | > 100 | > 100 | 44.6 | > 100 | > 100 | > 100 | – | > 100 | > 100 | – | – | – | – | – | – | – | – | – | –
10 | CCOC(=O)C(Sc1ccccc1)c1c(OC)cc(=O)oc1/C=[N+](/[O-])c1ccc(N(C)C)cc1 (centres undefined) | > 100 | 32.1 | > 100 | – | – | 37 | 44.9 | 76.4 | 26.6 | 32.5 | – | – | – | – | – | – | – | – | – | –
11 | CSCCCN(CCCSC)CCCSC | > 100 | – | > 100 | 50.7 | – | > 100 | > 100 | > 100 | > 100 | – | – | – | – | – | – | – | – | – | – | –
12 | CNC(=O)c1cc(Oc2ccc3nc(NC(=O)Nc4ccc(Cl)c(C(F)(F)F)c4)sc3c2)ccn1 | – | – | – | > 100 | 3.24 | – | – | 3.24 | > 100 | 4.57 | > 100 | 1.15 | 2.68 | 1.93 | 1.52 | – | – | – | – | –
13 | O=C1/C(=C/c2ccc([N+](=O)[O-])cc2)COc2ccc(O)c(O)c21 | 5.17 | 2.54 | 3.72 | 6.45 | 4.96 | 4.61 | 4.61 | 3.82 | 2.29 | – | 0.896 | 1.99 | 1.05 | – | 1.55 | 2.04 | 1.27 | 1.77 | 2.1 | 2.12
14 | CC(C)=CCCc1c(C)ccc2c1C(=O)C(=O)C(C(C)C)=C2 | > 22 | 7.79 | > 22 | 5.03 | 6.43 | 6.92 | > 22 | > 22 | – | 6.79 | – | – | – | – | – | – | – | – | – | –
15 | FC(F)(F)c1ccc(C2SCc3nc4ccccc4n32)cc1 (centres undefined) | > 100 | – | > 100 | 96.2 | 48.8 | > 100 | > 100 | > 100 | – | > 100 | – | – | – | – | – | – | – | – | – | –
16 | CC1(C)OC(=O)C(=Cc2ccc(O)cc2)C(=O)O1 | > 100 | > 100 | > 100 | > 100 | > 100 | > 100 | > 100 | – | > 100 | – | – | – | – | – | – | – | – | – | – | –
17 | COc1ccc(-c2cc(=O)c3ccc(O)cc3o2)c(OC)c1OC | > 100 | > 100 | > 100 | > 100 | > 100 | > 100 | – | 71.4 | > 100 | 91.8 | – | – | – | – | – | – | – | – | – | –
18 | O=c1cc(-c2cccc(O)c2)[nH]c2cc3c(cc12)OCO3 | > 100 | – | – | > 19.9 | – | 83.5 | 5.01 | 20.5 | > 100 | > 100 | – | – | – | – | – | – | – | – | – | –
19 | C[C@@H](CS(C)(=O)=O)Nc1ncc2cc(Oc3ccc(F)cc3F)c(=O)n(C)c2n1 | > 25 | > 25 | – | > 25 | > 25 | > 25 | > 25 | > 25 | > 25 | > 25 | > 25 | > 6.75 | > 25 | > 25 | > 25 | > 25 | > 25 | – | > 25 | > 25
20 | COc1ccc2c(c1)C1(C=N2)CCN(C(C)=O)CC1 | > 100 | > 100 | > 100 | > 100 | > 100 | > 100 | > 100 | > 100 | > 100 | – | – | – | – | – | – | – | – | – | – | –
21 | COc1cc2cnc3c4cc(OC(C)C)c(OC)cc4ccc3c2cc1OC | > 100 | > 100 | > 100 | – | – | > 100 | > 100 | > 100 | – | – | – | – | – | – | – | – | – | – | – | –
22 | COc1ccc2c(c1)C(=O)/C(=C/c1ccc(OCC(=O)Nc3nccs3)cc1)O2 | 16 | – | – | 0.413 | 0.369 | 26.3 | 16.3 | 9.38 | 0.108 | – | 0.187 | 0.161 | 0.057 | – | 0.629 | 1.76 | 0.392 | 2.04 | 12.7 | 2.93
23 | O=C(O)CCSC(=O)Nc1cccc(F)c1 | > 100 | – | > 100 | > 100 | – | > 100 | – | – | > 100 | – | – | – | – | – | – | – | – | – | – | –
24 | CCOC(=O)C1=C(C)CC2C(=O)OC(=O)C2C1(C)C (centres undefined) | > 100 | – | > 100 | > 100 | > 100 | > 100 | > 100 | – | – | > 100 | – | – | – | – | – | – | – | – | – | –
